Source: ChEMBL document CHEMBL1201862, “PubChem BioAssay data set” (2004)
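A five-concentration, 48-hour dose response in 96-well plates underlies each endpoint, interpolated linearly between surrounding concentrations. Here, GI50 denotes the concentration required for 50% inhibition of growth.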 Activity calls are given as the source filed them. Cut-off read from the data, not from the text of the source: active = GI50 up to about 1.1 µM and inactive = higher.

What was measured:
Assay in all cases: NCI-60 cell line screen, 48 h
OVCAR-4 = system: OVCAR-4
HCC 2998 = system: HCC 2998
K562 = system: K562
DU-145 = system: DU-145
HT-29 = system: HT-29
CAKI-1 = system: CAKI-1
OVCAR-8 = system: OVCAR-8
U-251 = system: U-251
TK-10 = system: TK-10
NCI-H460 = system: NCI-H460
MCF7 = system: MCF7
MDA-N = system: MDA-N
786-0 = system: 786-0
SNB-19 = system: SNB-19
UACC-257 = system: UACC-257
SF-295 = system: SF-295
UACC-62 = system: UACC-62
A549 = system: A549
CCRF-CEM = system: CCRF-CEM

Measured: GI50

C/C(=N\c1cc(Cl)cc(Cl)c1)c1ccncc1
inactive: OVCAR-4 > 100 µM | HCC 2998 > 100 µM | K562 > 100 µM | DU-145 > 100 µM | HT-29 > 100 µM | CAKI-1 > 100 µM | OVCAR-8 > 100 µM | U-251 > 100 µM | TK-10 > 100 µM | NCI-H460 > 100 µM | MCF7 > 100 µM | MDA-N > 100 µM | 786-0 > 100 µM | SNB-19 > 100 µM | UACC-257 > 100 µM | SF-295 > 100 µM | UACC-62 15 µM | A549 > 100 µM | CCRF-CEM > 100 µM

CC1OC(OC2C(O[C@@H]3C[C@@H]4CC[C@@H]5[C@H](CC[C@]6(C)[C@@H]7[C@H](C[C@@H]56)O[C@]5(CC[C@@H](C)CO5)[C@H]7C)[C@@]4(C)C[C@H]3O)OC(CO)C(OC3OC(CO)C(O)C(O)C3O)C2O)C(O)C(O)C1O (some centres undefined)
inactive: OVCAR-4 2.06 µM | K562 5.92 µM | DU-145 2.08 µM | HT-29 1.53 µM | CAKI-1 1.78 µM | OVCAR-8 1.52 µM | U-251 1.81 µM | NCI-H460 1.76 µM | MCF7 1.85 µM | MDA-N 1.91 µM | 786-0 1.73 µM | SNB-19 1.79 µM | UACC-257 1.87 µM | SF-295 1.56 µM | UACC-62 1.92 µM | A549 1.57 µM | CCRF-CEM 1.92 µM

O=C(CN1c2ccccc2Sc2ccccc21)n1cnc2ccccc21
inactive: OVCAR-4 69 µM | K562 99.5 µM | DU-145 > 100 µM | HT-29 73.6 µM | OVCAR-8 72.6 µM | U-251 43.5 µM | TK-10 > 100 µM | NCI-H460 97.5 µM | MCF7 > 100 µM | MDA-N > 100 µM | 786-0 52.6 µM | SNB-19 > 100 µM | UACC-257 > 100 µM | SF-295 > 100 µM | UACC-62 > 100 µM | A549 > 100 µM | CCRF-CEM 73.1 µM

N=c1c2c3n(c4c(=O)n(-c5ccccc5)c(=S)n(c(=O)n1-c1ccccc1)c24)CCCCC3
inactive: OVCAR-4 > 100 µM | HCC 2998 > 100 µM | DU-145 > 100 µM | HT-29 > 100 µM | CAKI-1 > 100 µM | OVCAR-8 > 100 µM | U-251 > 100 µM | TK-10 > 100 µM | NCI-H460 > 100 µM | MCF7 > 100 µM | MDA-N > 100 µM | 786-0 > 100 µM | SNB-19 > 100 µM | UACC-257 > 100 µM | SF-295 > 100 µM | UACC-62 > 100 µM | A549 > 100 µM | CCRF-CEM > 100 µM

CCC1OC2(C)CC(C#N)(C#N)C1(C#N)C(=N)O2 (centres undefined)
inactive: K562 > 100 µM | DU-145 > 100 µM | CAKI-1 > 100 µM | U-251 > 100 µM | TK-10 > 100 µM | MCF7 > 100 µM | MDA-N > 100 µM | 786-0 > 100 µM | SNB-19 > 100 µM | UACC-257 > 100 µM | SF-295 > 100 µM | UACC-62 > 100 µM | A549 > 100 µM | CCRF-CEM > 100 µM

Cc1[nH]n(-c2nc(-c3ccccc3)cc(=O)[nH]2)c(=O)c1CCO
inactive: OVCAR-4 > 100 µM | HCC 2998 > 100 µM | K562 > 100 µM | DU-145 > 100 µM | HT-29 > 100 µM | CAKI-1 > 100 µM | OVCAR-8 > 100 µM | U-251 > 100 µM | TK-10 > 100 µM | NCI-H460 > 100 µM | MCF7 > 100 µM | MDA-N > 100 µM | 786-0 > 100 µM | SNB-19 > 100 µM | UACC-257 > 100 µM | SF-295 > 100 µM | UACC-62 > 100 µM | A549 > 100 µM | CCRF-CEM > 100 µM
